Data on 14 compounds can be found in patent publication US9856262B2, “Analogues of 4H-pyrazolo[1,5-a] benzimidazole compound as PARP inhibitors” (HUBEI BIO-PHARMACEUTICAL INDUSTRIAL TECHNOLOGICAL INSTITUTE …, priority 2014, dated 2018).

One assay relates to HCC1937 cells. In words: Cellular PARylation assay. The note with it: Homo sapiens. Format: cell-based. Summed up:
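HCC1937 cells pretreated 30 min with compound, then stimulated with 1 mM H2O2 for 10 min. Fixed cells immunostained with anti-PAR 10H and FITC secondary, with DAPI counterstain; fluorescence read on a plate reader.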

The next assay deals with T1, PARP-1 (Homo sapiens, UniProt P09874).
T1 construct: purchased
The experiment in a line: PARP enzymatic assay (HT Universal Colorimetric PARP1 Assay Kit). Format: biochemical. The note with it: read-out: PARP-1 enzymatic inhibition IC50. An outline of the steps:
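Inhibition of PARP1 was measured with the HT Universal Colorimetric PARP1 Assay Kit. A 96-well plate was coated with histone proteins overnight at 4° C, washed with PBST, and blocked for 30 min at room temperature. Test compound and 20 μl of PARP1 (1 nM) were then added and incubated. Streptavidin-HRP (1:50) and chemiluminescent HRP substrate were added, and the signal was read on an Envision microplate reader.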

[1] abbreviates: HCC1937 cells, compound 30 min then 1 mM H2O2 10 min, read-out: cellular PARylation EC50.

Read-outs that look alike come from different tables or passages of the source.

T1 sequence (P09874 whole entry): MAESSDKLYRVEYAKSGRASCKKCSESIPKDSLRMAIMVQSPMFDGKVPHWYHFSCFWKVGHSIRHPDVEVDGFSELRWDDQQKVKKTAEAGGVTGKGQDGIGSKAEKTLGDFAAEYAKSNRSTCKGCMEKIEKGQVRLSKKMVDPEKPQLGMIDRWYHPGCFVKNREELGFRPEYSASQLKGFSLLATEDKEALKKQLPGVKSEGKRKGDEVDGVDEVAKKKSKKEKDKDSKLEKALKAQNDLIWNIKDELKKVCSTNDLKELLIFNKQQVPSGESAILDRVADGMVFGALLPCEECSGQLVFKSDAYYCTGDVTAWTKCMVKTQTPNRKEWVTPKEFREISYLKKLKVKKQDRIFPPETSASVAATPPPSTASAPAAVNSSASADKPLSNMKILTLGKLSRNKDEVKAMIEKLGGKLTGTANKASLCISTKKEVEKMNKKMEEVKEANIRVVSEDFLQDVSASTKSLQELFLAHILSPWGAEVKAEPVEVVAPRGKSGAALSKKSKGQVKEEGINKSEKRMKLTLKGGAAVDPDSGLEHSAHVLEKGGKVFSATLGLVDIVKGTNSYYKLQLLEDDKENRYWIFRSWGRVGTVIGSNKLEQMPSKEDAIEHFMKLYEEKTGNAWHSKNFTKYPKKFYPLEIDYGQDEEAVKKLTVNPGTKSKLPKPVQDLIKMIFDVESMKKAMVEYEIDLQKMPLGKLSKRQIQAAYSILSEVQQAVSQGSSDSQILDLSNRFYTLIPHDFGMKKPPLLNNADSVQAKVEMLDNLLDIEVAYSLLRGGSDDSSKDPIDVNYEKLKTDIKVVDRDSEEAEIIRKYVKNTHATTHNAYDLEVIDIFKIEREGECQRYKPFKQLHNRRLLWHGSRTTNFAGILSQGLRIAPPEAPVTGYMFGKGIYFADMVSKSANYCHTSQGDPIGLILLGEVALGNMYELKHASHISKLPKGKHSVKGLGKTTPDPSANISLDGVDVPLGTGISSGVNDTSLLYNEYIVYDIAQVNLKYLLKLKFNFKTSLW

For the compound `CC1(c2cnn3c2[nH]c2cc(F)cc(C(N)=O)c23)CCN(CCC#N)C1` (stereo not shown) [Example 103, 3-(1-(2-cyanoethyl)-3-methylpyrrolidin-3-yl)-6-fluoro-4H-benzo[4,5]imidazo[1,2-b]pyrazole-8-carboxamide], the 50% effective concentration (EC50) (in general, the concentration giving half of the maximal effect) in the assay on HCC1937 cells (setting [1]) fell in the range of 101 to 1000 nM. Further, the half-maximal inhibitory concentration (IC50) (commonly the concentration needed to halve the response being measured) on PARP-1 is 1 to 100 nM.
`CC1(c2cnn3c2[nH]c2cc(F)cc(C(N)=O)c23)CN(CC2CC2)C1` [Example 104, 3-(1-(cyclopropylmethyl)-3-methylazetidin-3-yl)-6-fluoro-4H-benzo[4,5]imidazo[1,2-b]pyrazole-8-carboxamide]: the EC50 with HCC1937 cells (setting [1]) fell in the range of 1 to 100 nM. Besides, the IC50 on PARP-1 was 1 to 100 nM.
On to `CC(C)N1CCC(C)(c2cnn3c2[nH]c2cc(F)cc(C(N)=O)c23)CC1` [Example 105, 6-fluoro-3-(1-isopropyl-4-methylpiperidin-4-yl)-4H-benzo[4,5]imidazo[1,2-b]pyrazole-8-carboxamide], for which, in the assay on HCC1937 cells (setting [1]), the EC50 lay in the range of 1 to 100 nM. In addition, the IC50 at PARP-1 was 1 to 100 nM.
With `CC1(c2cnn3c2[nH]c2cc(F)cc(C(N)=O)c23)CCS(=O)(=O)CC1` [Example 106, 6-fluoro-3-(4-methyl-1,1-dioxidotetrahydro-2H-thiopyran-4-yl)-4H-benzo[4,5]imidazo[1,2-b]pyrazole-8-carboxamide], in the assay on HCC1937 cells (setting [1]), the EC50 fell in the range of 101 to 1000 nM. Also, at PARP-1, the IC50 fell in the range of 1 to 100 nM.
For the compound `CCN1CCC(CC)(c2cnn3c2[nH]c2cc(F)cc(C(N)=O)c23)CC1` [Example 107, 3-(1,4-diethylpiperidin-4-yl)-6-fluoro-4H-benzo[4,5]imidazo[1,2-b]pyrazole-8-carboxamide], the concentration giving a half-maximal response (EC50) in the assay on HCC1937 cells (setting [1]) fell in the range of 1 to 100 nM. The IC50 at PARP-1 lay in the range of 1 to 100 nM.
Consider `N#CC1(c2cnn3c2[nH]c2cc(F)cc(C(N)=O)c23)CCN(CC2CC2)CC1` [Example 108, 3-(4-cyano-1-(cyclopropylmethyl)piperidin-4-yl)-6-fluoro-4H-benzo[4,5]imidazo[1,2-b]pyrazole-8-carboxamide], for which the EC50 with HCC1937 cells (setting [1]) was 1 to 100 nM. The IC50 at PARP-1 lay within 1 to 100 nM.
On to `NC(=O)c1cc(F)cc2[nH]c3c(C4(CO)CCN(CC5CC5)CC4)cnn3c12` [Example 109, 3-(1-(cyclopropylmethyl)-4-(hydroxymethyl)piperidin-4-yl)-6-fluoro-4H-benzo[4,5]imidazo[1,2-b]pyrazole-8-carboxamide], for which the EC50 with HCC1937 cells (setting [1]) was 101 to 1000 nM. Also, on PARP-1, the IC50 lay within 1 to 100 nM.
Take `COC(=O)C1(c2cnn3c2[nH]c2cc(F)cc(C(N)=O)c23)CCN(CC2CC2)CC1` [Example 110, methyl 4-(8-carbamoyl-6-fluoro-4H-benzo[4,5]imidazo[1,2-b]pyrazol-3-yl)-1-(cyclopropylmethyl)piperidine-4-carboxylate]: the EC50 in the assay on HCC1937 cells (HCC1937, read-out: cellular PARylation EC50) was in the range of 101 to 1000 nM. Also, at PARP-1, the half-inhibitory concentration (IC50) is 1 to 100 nM.
For the compound `Cc1nn2c([nH]c3cc(F)cc(C(N)=O)c32)c1C1(C)CCN(CC2CC2)CC1` [Example 111, 3-(1-(cyclopropylmethyl)-4-methylpiperidin-4-yl)-6-fluoro-2-methyl-4H-benzo[4,5]imidazo[1,2-b]pyrazole-8-carboxamide], the EC50 in the assay on HCC1937 cells (setting [1]) was 1 to 100 nM. The IC50 at PARP-1 lay in the range of 1 to 100 nM.
Take `CCN1CCC(C)(c2c(C)nn3c2[nH]c2cc(F)cc(C(N)=O)c23)CC1` [Example 112, 3-(1-ethyl-4-methylpiperidin-4-yl)-6-fluoro-2-methyl-4H-benzo[4,5]imidazo[1,2-b]pyrazole-8-carboxamide]: the half-maximal effective concentration (EC50) with HCC1937 cells (setting [1]) fell in the range of 1 to 100 nM. Also, on PARP-1, the IC50 is 1 to 100 nM.
For `Cc1nn2c([nH]c3cc(F)cc(C(N)=O)c32)c1C1(C)CCN(CC(C)C)CC1` [Example 113, 6-fluoro-3-(1-isobutyl-4-methylpiperidin-4-yl)-2-methyl-4H-benzo[4,5]imidazo[1,2-b]pyrazole-8-carboxamide], the EC50 with HCC1937 cells (setting [1]) was in the range of 1 to 100 nM. Further, the IC50 at PARP-1 was in the range of 1 to 100 nM.
Consider `Cc1nn2c([nH]c3cc(F)cc(C(N)=O)c32)c1C1(C)CCN(C(C)C)CC1` [Example 114, 6-fluoro-3-(1-isopropyl-4-methylpiperidin-4-yl)-2-methyl-4H-benzo[4,5]imidazo[1,2-b]pyrazole-8-carboxamide], for which, in the assay on HCC1937 cells (setting [1]), the EC50 was in the range of 1 to 100 nM. At PARP-1, the IC50 is 1 to 100 nM.
On to `Cc1nn2c([nH]c3cc(F)cc(C(N)=O)c32)c1C1(C)CCN(C)CC1` [Example 115, 3-(1,4-dimethylpiperidin-4-yl)-6-fluoro-2-methyl-4H-benzo[4,5]imidazo[1,2-b]pyrazole-8-carboxamide], for which, in the assay on HCC1937 cells (setting [1]), the concentration for a half-maximal effect (EC50) is 1 to 100 nM. Also, the IC50 at PARP-1 was 1 to 100 nM.
As for `Cc1nn2c([nH]c3cc(F)cc(C(N)=O)c32)c1C1(C)CCN(CC(C)(C)O)CC1` [Example 116, 6-fluoro-3-(1-(2-hydroxy-2-methylpropyl)-4-methylpiperidin-4-yl)-2-methyl-4H-benzo[4,5]imidazo[1,2-b]pyrazole-8-carboxamide], the EC50 in the assay with HCC1937 cells (setting [1]) was in the range of 1 to 100 nM. Besides, the IC50 on PARP-1 is 1 to 100 nM.
